Values quoted from earlier work as cited in PMC6105163, “Abaloparatide Exerts Bone Anabolic Effects with Less Stimulation of Bone Resorption-Related Factors: A Comparison with Teriparatide” (Calcified Tissue International, 2018).

Legend:
[1] = system: osteocytes; conditions: ref [11], [12]; cited from earlier work
Text: The mechanism of action of TPTD on bone turnover is not fully understood; however, many studies have examined the molecular mechanisms in recent decades. According to a previous study, PTH(1–34) acts on osteoblasts and indirectly induces bone resorption by activating osteoclasts. PTH(1–34) increases the expression of receptor activator of nuclear factor kappa-B ligand (RANKL) and macrophage colony-stimulating factor (M-CSF) and decreases the expression of osteoprotegerin (OPG), a decoy receptor of RANKL [9]. These effects of PTH(1–34) further promote the maturation of osteoclasts with ... || Finally, we evaluated the effects of ABL on WNT signaling antagonists. WNT signaling antagonists such as sclerostin and DKK1 are secreted from osteocytes. They inhibit bone formation by antagonizing canonical WNT ligands and subsequently suppress WNT-mediated signaling pathways. […] We therefore evaluated the effects of ABL on WNT signaling antagonists in comparison with TPTD. It is generally known that human osteocytes have been diffic ...

[2] = system: cAMP and PKC; conditions: ref [24]; cited from earlier work
Text: There is another possibility that the two peptides could show the different activity on protein kinase C (PKC). PKC is the downstream signal of PTH1R and is involved in the stimulation of bone resorption-related factors and bone catabolism. In fact, ostabolin, an amidated form of human PTH(1–31), differs from PTH(1–34) in PKC activation.

[3] = system: osteoporosis; conditions: cited from earlier work
Text: In fact, teriparatide (TPTD), the N-terminal 34 amino acids fragment of PTH, is currently the only bone anabolic agent used for the treatment of osteoporosis, by daily or weekly subcutaneous administration.

human PTH(1–34) [Teriparatide]
expression of WNT signaling antagonists in osteocytes [1]: inhibited
secretion of WNT signaling antagonists such as sclerostin and DKK1 [1]: inhibiting
cAMP accumulation and PKC activation [2]: stimulated both cAMP and PKC
BMD vs antiresorptive agents such as bisphosphonates ([3]; daily or weekly subcutaneous): greater than antiresorptive agents
effect on the hip ([3]; daily or weekly subcutaneous): modest
blood calcium ([3]; in vivo): mildly increased
